Results taken from US12156860B2, “Disorders implicating PUFA oxidation” (BioJiva LLC, priority 2011, dated 2024).

Experiments:
Q-less coq3 yeast = experiment: Yeast incubated with different ratios of H- and D-PUFA, plate dilution; assay type: cell-based, S. cerevisiae; conditions: 200 μM total LA and D2-LA at different ratios
Protocol: FIG. 9. […] Wild-type, yeast Q-less coq3, or respiratory deficient cor1 null mutants were incubated in the presence of 200 μM of LA and D2-LA at different ratios of PUFAs. Serial dilutions (1:5) starting at 0.2 OD/ml were spotted on YPD solid plate medium. A zero-time untreated control is shown on the top left. Growth at 30° C.
FIG. 10. […] Serial dilutions (1:5) starting at 0.2 OD/ml were spotted on YPD solid plate medium. Growth at 30° C.
Wild-type, yeast Q-less coq3, or respiratory deficient cor1 null mutants were incubated in the presence of 200 μM of LA and D2-LA at different ratios of PUFAs, as indicated in FIG. 9. Serial dilutions (1:5) starting at 0.2 OD/ml were spotted on YPD solid plate medium. […] Growth was at 30° C.
Serial dilutions (1:5) starting at 0.2 OD/ml were spotted on YPD solid plate medium. Growth was at 30° C.

[1] = system: alcoholic liver disease rats; experiment: Alcoholic liver disease and cirrhosis induced by 5% ethanol diet; assay type: in vivo, Rattus norvegicus, Wistar; conditions: 5% ethanol diet rats, daily over three months
Protocol: Fifty male heterozygous rats, 45-days-old, from the Rattus norvegicus species and Wistar lineage are kept in polypropylene cages, in groups of five animals, under a 12 h-clear/dark cycle and under controlled temperature conditions. The induction of alcoholic liver disease and cirrhosis is carried out through a diet containing 5% ethanol […]. […] During the study period, the animals are weighed on a weekly basis and the drugs dose is readjusted as necessary. On the first day of the study, besides determining the animals' weight, their blood is collected through retro-orbital plexus puncture for biochemical analysis: alanine-aminotransferase (ALT) and aspartate-aminotransferase (AST) (colorimetric test, using the Labtest kit). One day after concluding the induction period and compound administration (90 days), the animals are sacrificed by decapitation. Once more, each animal's blood is collected for biochemical analysis. Then, laparotomy with total hepatectomy and liver preparation are carried out for lipoperoxidation (LPO) and histological analysis. Liver tissue samples are analyzed using the thiobarbituric-acid reactant substance (TBARS) measurement according to known methods (See Lowry et al. Protein measurement with the folin phenol reagent. J Biol Chem. 1951; 193:265-75) and the results are expressed in nmol of malondialdehyde/mg of protein. Slides with liver fragments are also dyed with hematoxilin-eosine and picrosirius, in order to evaluate the fibrosis level, and with Perls to evaluate the presence of iron stores, having been examined by an only pathologist blinded to the animals' data.

Q: Which “sufficiently minimal amount to cancel the toxicity of LA” value (Q-less coq3 yeast) does the source give for [2H]C([2H])(/C=C\CCCCC)/C=C\CCCCCCCC(=O)O [D2-LA, 11,11-Dideutero-cis,cis-9,12-Octadecadienoic acid] here?
A: 10-15%

Q: What about the “amount of MDA in liver samples (TBARS)” value [1] of the same molecule?
A: reduce the amount of MDA found in liver samples

Q: And the “histological signs of fatty liver disease” value [1]?
A: reverse the histological signs of fatty liver disease
